ChEMBL document CHEMBL1201862, “PubChem BioAssay data set” (2004)
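In this assay, cells in 96-well plates receive the compound at five concentrations for 48 hours. Endpoints are linearly interpolated between the surrounding concentrations. GI50: concentration for 50% inhibition of growth.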 Calls of active or inactive are those of the source. Rule as the data show it: active = GI50 up to about 1.1 µM and inactive = higher.

Experiments:
Assay in all cases: growth of human tumour cells (NCI), 48 h
786-0 = tested on: 786-0
CCRF-CEM = tested on: CCRF-CEM
EKVX = tested on: EKVX
HL-60 = tested on: HL-60
LOX IMVI = tested on: LOX IMVI
LXFL 529 = tested on: LXFL 529
MCF7 = tested on: MCF7
MDA-MB-231 = tested on: MDA-MB-231
MDA-MB-435 = tested on: MDA-MB-435
MDA-N = tested on: MDA-N
MOLT-4 = tested on: MOLT-4
NCI-H23 = tested on: NCI-H23
OVCAR-5 = tested on: OVCAR-5
RXF 393 = tested on: RXF 393
SF-539 = tested on: SF-539
SK-MEL-28 = tested on: SK-MEL-28
SK-OV-3 = tested on: SK-OV-3
SW-620 = tested on: SW-620
U-251 = tested on: U-251
UACC-62 = tested on: UACC-62

Measured: GI50

O=C1C(O)=C(CC=C(Cl)Cl)C(=O)c2ccccc21
inactive: 786-0 6.17 µM | CCRF-CEM 2.82 µM | EKVX 42.3 µM | HL-60 2.07 µM | LOX IMVI 2.23 µM | LXFL 529 2.38 µM | MCF7 8.87 µM | MDA-MB-231 15.1 µM | MDA-MB-435 11 µM | MDA-N 16.4 µM | MOLT-4 1.46 µM | NCI-H23 27.9 µM | OVCAR-5 47.5 µM | RXF 393 28.7 µM | SF-539 10 µM | SK-MEL-28 23.4 µM | SK-OV-3 41.6 µM | SW-620 8.93 µM | U-251 2.62 µM | UACC-62 4.91 µM

COC(=O)C1=C(C[S+]([O-])c2ccc([N+](=O)[O-])cc2[N+](=O)[O-])ON(C)C1c1ccccc1 (stereo unspecified)
inactive: 786-0 67.1 µM | CCRF-CEM 9.06 µM | EKVX > 64.6 µM | HL-60 7.66 µM | LOX IMVI 14.9 µM | LXFL 529 30.1 µM | MOLT-4 17.4 µM | NCI-H23 25.3 µM | OVCAR-5 > 95.7 µM | RXF 393 > 42.2 µM | SF-539 21.9 µM | SK-MEL-28 24.2 µM | SK-OV-3 > 100 µM | SW-620 15.7 µM | U-251 31.3 µM | UACC-62 24.2 µM

COc1cc2c(cc1OC)C(Cc1cc(Br)c(OC)c(OC)c1)=[N+](C)CC2
inactive: 786-0 > 100 µM | CCRF-CEM 92.5 µM | EKVX > 100 µM | HL-60 36 µM | LOX IMVI 39.3 µM | LXFL 529 9.73 µM | NCI-H23 14.6 µM | OVCAR-5 45.1 µM | RXF 393 69.7 µM | SF-539 > 100 µM | SK-MEL-28 > 100 µM | SK-OV-3 > 100 µM | SW-620 67.3 µM | U-251 8.17 µM | UACC-62 > 100 µM

Cc1nc(N2N=C(c3ccc(Cl)cc3)CCC2=O)sc1[N+](=O)[O-]
inactive: 786-0 > 100 µM | CCRF-CEM > 100 µM | EKVX 67.6 µM | HL-60 > 100 µM | LOX IMVI > 100 µM | LXFL 529 > 100 µM | MOLT-4 > 100 µM | NCI-H23 > 100 µM | RXF 393 > 100 µM | SF-539 > 100 µM | SK-MEL-28 > 100 µM | SK-OV-3 > 100 µM | SW-620 > 100 µM | U-251 > 100 µM | UACC-62 > 100 µM

O=C(NNC(=O)/C(=C/c1cccc([N+](=O)[O-])c1)NC(=O)c1ccccc1)Nc1ccc(Cl)cc1
inactive: 786-0 14 µM | CCRF-CEM 6.58 µM | EKVX 18.7 µM | HL-60 6.5 µM | LOX IMVI 15.6 µM | LXFL 529 10.6 µM | MOLT-4 3.94 µM | NCI-H23 15.1 µM | OVCAR-5 18.3 µM | RXF 393 11 µM | SF-539 16.7 µM | SK-MEL-28 15.5 µM | SK-OV-3 15.8 µM | SW-620 15.1 µM | U-251 14.2 µM | UACC-62 14.5 µM

Brc1ccccc1C1SCc2nc3ccccc3n21 (stereo unspecified)
inactive: 786-0 14 µM | CCRF-CEM 21 µM | EKVX 17.3 µM | HL-60 6.71 µM | LOX IMVI 13.2 µM | LXFL 529 15.1 µM | MOLT-4 18.5 µM | NCI-H23 11.7 µM | OVCAR-5 10.2 µM | RXF 393 9.33 µM | SF-539 17.4 µM | SK-MEL-28 > 10 µM | SK-OV-3 20.7 µM | SW-620 32.3 µM | U-251 15.7 µM | UACC-62 > 10 µM

COCCCNC(=O)C1C(=O)N(CCCOC)C(=O)/C1=N\N (stereo unspecified)
inactive: 786-0 > 100 µM | CCRF-CEM > 100 µM | EKVX > 100 µM | HL-60 > 100 µM | LXFL 529 > 100 µM | MOLT-4 > 100 µM | NCI-H23 > 100 µM | OVCAR-5 > 100 µM | RXF 393 > 100 µM | SF-539 > 100 µM | SK-MEL-28 > 100 µM | SW-620 > 100 µM | U-251 > 100 µM | UACC-62 > 100 µM

O=C(Nc1cccc(C(F)(F)F)c1)C(=O)C1NC(=S)NC1=O (stereo unspecified)
inactive: 786-0 > 100 µM | CCRF-CEM 54.5 µM | EKVX > 100 µM | HL-60 > 100 µM | LOX IMVI 72.9 µM | LXFL 529 > 100 µM | MOLT-4 > 100 µM | NCI-H23 > 100 µM | OVCAR-5 > 100 µM | RXF 393 > 100 µM | SF-539 > 100 µM | SK-MEL-28 > 100 µM | SK-OV-3 > 100 µM | SW-620 17.7 µM | UACC-62 > 100 µM

CCCCCCCCC(=O)N(C)C1C2CN3CCC(O2)C13 (stereo unspecified)
inactive: 786-0 > 100 µM | CCRF-CEM > 100 µM | EKVX > 100 µM | HL-60 > 100 µM | LOX IMVI > 100 µM | LXFL 529 > 100 µM | MOLT-4 > 100 µM | NCI-H23 > 100 µM | OVCAR-5 > 100 µM | RXF 393 > 100 µM | SF-539 > 100 µM | SK-MEL-28 > 100 µM | SK-OV-3 > 100 µM | SW-620 > 100 µM | U-251 > 100 µM | UACC-62 > 100 µM

N#Cc1ccccc1/C=N/O
inactive: 786-0 > 76.7 µM | CCRF-CEM > 50.8 µM | EKVX > 100 µM | HL-60 > 44.4 µM | LOX IMVI > 100 µM | LXFL 529 > 91.4 µM | MOLT-4 > 100 µM | NCI-H23 > 100 µM | OVCAR-5 > 100 µM | RXF 393 > 100 µM | SF-539 > 100 µM | SK-MEL-28 > 100 µM | SK-OV-3 > 100 µM | SW-620 > 36.9 µM | U-251 > 81.1 µM | UACC-62 > 100 µM

O=C(OCc1ccccc1C1CSCSC1)c1cc(C(=O)OCc2ccccc2C2CSCSC2)c(C(=O)OCc2ccccc2C2CSCSC2)cc1C(=O)OCc1ccccc1C1CSCSC1
inactive: 786-0 65 µM | CCRF-CEM > 100 µM | HL-60 > 100 µM | LOX IMVI > 100 µM | LXFL 529 > 100 µM | MOLT-4 > 100 µM | NCI-H23 > 100 µM | OVCAR-5 > 100 µM | RXF 393 > 100 µM | SF-539 > 100 µM | SK-MEL-28 > 100 µM | SK-OV-3 > 100 µM | SW-620 > 100 µM | U-251 > 100 µM | UACC-62 > 100 µM

NCCCNCc1c2ccccc2c(CNCCCN)c2ccccc12
inactive: 786-0 5.9 µM | CCRF-CEM 16.9 µM | EKVX 20.3 µM | HL-60 14.4 µM | LXFL 529 11.4 µM | MOLT-4 12 µM | NCI-H23 18.6 µM | OVCAR-5 21.3 µM | RXF 393 15.2 µM | SF-539 14.6 µM | SK-MEL-28 > 10 µM | SW-620 6.84 µM | U-251 33.4 µM | UACC-62 36.1 µM

CC(O)C(C(=O)O)N(CC1(O)OCC(O)C(O)C1O)N=O (stereo unspecified)
inactive: 786-0 > 100 µM | CCRF-CEM > 100 µM | EKVX > 100 µM | HL-60 > 100 µM | LOX IMVI > 100 µM | LXFL 529 > 100 µM | MOLT-4 > 100 µM | NCI-H23 > 100 µM | OVCAR-5 > 100 µM | RXF 393 > 100 µM | SF-539 > 100 µM | SK-MEL-28 > 100 µM | SK-OV-3 > 100 µM | SW-620 > 100 µM | U-251 > 100 µM | UACC-62 > 100 µM

[O-][Cl+3]([O-])([O-])[O-].c1ccc(C[P+]2(c3ccccc3)CCCCC2)cc1
inactive: 786-0 > 100 µM | CCRF-CEM > 100 µM | EKVX > 100 µM | HL-60 29.4 µM | LOX IMVI 85.1 µM | LXFL 529 38.3 µM | MOLT-4 > 100 µM | NCI-H23 > 100 µM | OVCAR-5 > 100 µM | RXF 393 > 100 µM | SF-539 > 100 µM | SK-MEL-28 > 100 µM | SK-OV-3 > 100 µM | SW-620 > 100 µM | U-251 38.4 µM | UACC-62 61.7 µM

C/C(=N\Nc1ccccc1)c1sc(-c2nc(C)c(/C(C)=N/Nc3ccccc3)s2)nc1C
inactive: 786-0 18.8 µM | CCRF-CEM 28.3 µM | EKVX 24.7 µM | HL-60 31.8 µM | LOX IMVI 7.96 µM | LXFL 529 7.06 µM | MOLT-4 19.2 µM | NCI-H23 32.7 µM | OVCAR-5 51.3 µM | RXF 393 22.8 µM | SF-539 16.1 µM | SK-MEL-28 > 48.2 µM | SK-OV-3 58.5 µM | SW-620 13.8 µM | U-251 37.1 µM | UACC-62 4.07 µM

COc1cc(/C=C2\CCC(CN(C)C)C2=O)ccc1OC(=O)c1ccccc1 (stereo unspecified)
inactive: 786-0 3.76 µM | CCRF-CEM 1.96 µM | EKVX 14.2 µM | HL-60 1.91 µM | LOX IMVI 3.86 µM | LXFL 529 2.88 µM | MCF7 6.25 µM | MDA-MB-231 5.47 µM | MDA-MB-435 14.3 µM | MDA-N 15.4 µM | MOLT-4 2.28 µM | NCI-H23 16.1 µM | OVCAR-5 18.8 µM | RXF 393 7.8 µM | SF-539 14.1 µM | SK-MEL-28 15.1 µM | SK-OV-3 23.1 µM | SW-620 5.07 µM | U-251 16.2 µM | UACC-62 16.5 µM

O=C(CSc1nnc(-c2ccc(/N=C\c3ccc(Cl)cc3)cc2)o1)Nc1ccc(Cl)cc1Cl
inactive: 786-0 19.5 µM | CCRF-CEM 29.3 µM | EKVX 34.1 µM | HL-60 33.9 µM | LXFL 529 22.4 µM | MOLT-4 24.3 µM | NCI-H23 25.3 µM | OVCAR-5 94.4 µM | RXF 393 68.7 µM | SF-539 22.2 µM | SK-MEL-28 28 µM | SK-OV-3 27.5 µM | SW-620 40.2 µM | U-251 25.2 µM | UACC-62 28.7 µM
